These results are taken from patent US8791258B2, “Pro-fluorescent probes” (The Regents of the University of California, priority 2008, dated 2014).

Data set [1] is described as follows: Fluorescence response to H2O2 in 20 mM HEPES, pH 7. As for the experimental part:
(§1) Millipore water was used to prepare all aqueous solutions. All spectroscopic measurements were performed in 20 mM HEPES buffer, pH 7. Absorption spectra were recorded using a Varian Cary 50 spectrophotometer (Walnut Creek, Calif.). Fluorescence spectra were recorded using a Photon Technology International Quanta Master 4 L-format scanning spectrofluorometer (Lawrenceville, N.J.) equipped with an LPS-220B 75-W xenon lamp and power supply, A-1010B lamp housing with integrated igniter, switchable 814 photon-counting/analog photomultiplier detection unit, and MD5020 motor driver. Samples for absorption and fluorescence measurements were contained in 1-cm×1-cm quartz cuvettes (1.4- or 3.5-mL volume, Starna, Atascadero, Calif.).
The Peroxysensor reagents were evaluated under simulated physiological conditions (20 mM HEPES buffer, pH 7). […] FIG. 4, FIG. 5 and FIG. 6 show the fluorescence responses of PF1, PR1, and PX1, respectively, to H2O2.

Data set [2] is described as follows: Fluorescence response to various ROS (H2O2 selectivity). The note with it: 100 μM ROS, 20 mM HEPES, pH 7, 25° C. As for the experimental part:
FIG. 7 is the fluorescence response of 5 μM PF1 to various ROS (10 mM O2^−, 100 μM for all other ROS). .OH and .Ot-Bu were generated by reaction of Fe^2+ with H2O2 or tert-butyl hydroperoxide (TBHP), respectively. NO was delivered using S-nitrosocysteine (SNOC). Spectra were acquired in 20 mM HEPES, pH 7, and all data were obtained after incubation with the appropriate ROS at 25° C. for 1 h. Collected emission was integrated between 460 and 700 nm (λexc=450 nm).
FIG. 8 is the fluorescence response of 5 μM PR1 to various ROS (10 mM O2^−, 100 μM for all other ROS). .OH and .O^tBu were generated by reaction of Fe^2+ with H2O2 or tert-butyl hydroperoxide (TBHP), respectively. NO was delivered using S-nitrosocysteine (SNOC). Spectra were acquired in 20 mM HEPES, pH 7, and all data were obtained after incubation with the appropriate ROS at 25° C. for 30 min. Collected emission was integrated between 570 and 800 nm (λexc=560 nm).
FIG. 9 is the fluorescence response of 10 μM PX1 to various ROS (10 mM O2^−, 100 μM for all other ROS). .OH and .Ot-Bu were generated by reaction of Fe^2+ with H2O2 or tert-butyl hydroperoxide (TBHP), respectively. NO was delivered using S-nitrosocysteine (SNOC). Spectra were acquired in 20 mM HEPES, pH 7, and all data were obtained after incubation with the appropriate ROS at 25° C. for 1 h. Collected emission was integrated between 370 and 600 nm (λexc=350 nm).
as §1
FIG. 7, FIG. 8 and FIG. 9 compare the relative reactivities of boronate-based PF1, PR1, and PX1, respectively, toward various ROS.

Data set [3] can be described thus: Absorption and emission properties, fluorescence quantum yield. Format: physicochemical. As to conditions: absorption maximum 350 nm; 20 mM HEPES, pH 7. As for the experimental part: as §1
as §1, with “recorded on” for “recorded using”, “Creek, Calif.) and fluorescence” for “Creek, Calif.). Fluorescence”, “and emission” for “and fluorescence”, “cuvettes (1.5-mL” for “cuvettes (1.4- or 3.5-mL”, “Calif.). Fluorescence quantum yields were determined by reference to fluorescein in 0.1M NaOH (Φ=0.95).” for “Calif.).”

The next data set has as its system HEK cells. The data set can be described thus: Confocal and two-photon fluorescence imaging of H2O2 in live HEK cells. As to conditions: for intracellular background fluorescence of probe-loaded cells before H2O2: 5-10 μM probe, 2-10 min at 25° C.; for intracellular fluorescence after addition of H2O2: probe-loaded cells, 10-100 μM H2O2. As to the method: (a) Fluorescence image of HEK cells incubated with 5 μM PF1 for 5 min at 25° C. (b) Fluorescence image of PF1-stained HEK cells treated with 100 μM H2O2 for 11 min at 25° C. Excitation was provided at 488 nm, and emission was collected in a window from 505 to 580 nm. Scale bar=27 μm.
(a) Fluorescence image of HEK cells incubated with 10 μM PR1 for 10 min at 25° C. (b) Fluorescence image of PR1-stained HEK cells treated with 100 μM H2O2 for 30 min at 25° C. Excitation was provided at 543 nm, and emission was collected in a window from 548 to 644 nm. Scale bar=18 μm.
(a) Fluorescence image of HEK cells incubated with 10 μM PX1 for 2-3 min at 25° C. (b) Fluorescence image of PX1-stained HEK cells treated with 100 μM H2O2 for 30 min at 25° C. Two-photon excitation was provided at 704 nm, and emission was collected in a window from 420 to 500 nm. Scale bar=18 μm.
HEK 293T cells were cultured in Dulbecco's Modified Eagle Medium (DMEM, Invitrogen, Carlsbad, Calif.) supplemented with 10% Fetal Bovine Serum (FBS, Invitrogen), glutamine (2 mM), and penicillin/streptomycin (50 μg/ml, Invitrogen). One day before imaging, cells were passed and plated on 18-mm glass coverslips coated with poly-L-lysine (50 μg/ml, Sigma, St. Louis, Mo.). Immediately before the experiments, cells were washed with PBS buffer, incubated with the probe in PBS, and imaged.
Confocal fluorescence imaging was performed with a Zeiss LSM510 META laser scanning microscope containing an Axioplan 2 MOT upright microscope and a 40× water-immersion objective lens. Excitation of PF1-loaded cells at 488 nm was carried out with an argon ion laser, and emission was Collected in a window from 505 nm to 580 nm using a META detection system. Excitation of PR1-loaded cells at 543 nm was carried out with a HeNe laser, and emission was collected in a window from 548 nm to 644 nm using a META detector. PF1 or PR1 were incubated with live cell samples for 5 to 10 min. Addition of H2O2 (10 to 100 μM) to cell samples was performed directly on the microscope stage by bath application to the media.
Two-photon fluorescence imaging of PX1 was carried out using an inverted Zeiss LSM510 Axiovert 200M microscope with a NeoFLUAR 40×/1.3 NA oil-immersion objective lens. Samples were excited by 704-nm pulses from a mode-locked Ti:Sapphire laser (Tsunami, SpectraPhysics, 120-150 fs pulse width, 80 MHz repetition rate). The emission light was filtered with a 80-nm wide bandpass filter centered at 460 nm (460BP40, Chroma) and detected with the non-descanned detector (NDD) of the LSM510.

Data set [4] concerns embryonic rat hippocampal neurons (E18). As to the kind of experiment: Fluorescence imaging of H2O2 in cultured hippocampal neurons. In kind it is cell-based. As for the experimental part:
Hippocampal primary cultures were prepared from embryonic day 18 (E18) rat embryos according to a previously reported protocol. Briefly, hippocampi were dissociated by treatment with trypsin for 20 min at 37° C. followed by washing. The neuronal cells were plated on glass coverslips (Carolina Biological, Burlington, N.C.) coated with poly-L-lysine ([…], Sigma) and cultured in neurobasal medium supplemented with 2 mM Glutamax and 2% B-27 (Invitrogen). After 10 days in vitro, the cultures were washed with PBS, incubated with the probe in PBS, and imaged.
Finally, the successful use of the Peroxysensor probes for monitoring changes in intracellular H2O2 concentrations in mammalian cell lines using either confocal or two-photon microscopy led us to evaluate their utility in primary culture systems. […] Control neurons without PF1 and/or H2O2 treatment show no detectable fluorescence enhancements. These experiments confirm that PF1 can be used in living neurons to detect oxidative stress events.

Where only a bound is given, the exact number is not on record here.

Regarding `CC1(C)OB(c2ccc3c(=O)c4ccc(B5OC(C)(C)C(C)(C)O5)cc4oc3c2)OC1(C)C` [PX1, 3,6-Bis(pinacolatoboron)xanthone], the “increase in integrated fluorescence intensity / integrated emission on reaction with H2O2 (dynamic range)” value in data set [1] is listed as 52 fold. Besides, the “higher response for H2O2 over NO” value in data set [2] (NO delivered using SNOC) was “ca. 6 fold”. Further, the “higher response for H2O2 over tert-butyl hydroperoxide (TBHP)” value in data set [2] was over 100 fold. In addition, the “extinction coefficient ε at 350 nm” value in data set [3] worked out at 4700 M⁻¹ cm⁻¹. Moreover, in the data set with HEK cells, the “intracellular background fluorescence of probe-loaded cells before H2O2” value is on record as “minimal intracellular background fluorescence” and the “intracellular fluorescence after addition of H2O2” value is “Prompt increases in intracellular blue fluorescence”.
As for `CC1(C)OB(c2ccc3c(c2)Oc2cc(B4OC(C)(C)C(C)(C)O4)ccc2C32OC(=O)c3ccccc32)OC1(C)C` [PF1, 3′,6″-Bis(pinacolatoboron)fluoran], the “higher response for H2O2 over .OH” value in data set [2] (.OH from Fe2+ with H2O2) is reported as over 3 fold. Moreover, in data set [2] (.OtBu from Fe2+ with TBHP), the “higher response for H2O2 over .OtBu” value is listed as over 15 fold. Further, in the data set with HEK cells, the “cell viability during imaging” value is “cells are viable throughout the imaging experiments”, the “membrane permeability / cell entry” value is reported as “can passively enter live cells”, the “intracellular background fluorescence of probe-loaded cells before H2O2” value is given as “negligible intracellular background fluorescence” and the “intracellular fluorescence after addition of H2O2” value was “prompt increases in intracellular green fluorescence”. In addition, the “background fluorescence of probe-loaded neurons” value in data set [4] (10 μM probe, 5 min at 25° C.) is given as “negligible background fluorescence”. Moreover, the “intracellular fluorescence under simulated oxidative stress” value in data set [4] (300 μM H2O2 for 30 min at 25° C.) was “notable increases in intracellular fluorescence”.
